Ends that are not written are not given here.
B1: rLBP: recombinant lipopolysaccharide binding protein (LBP holoprotein) (protein, UniProt P18428 26-481, looked up)
Lipopolysaccharide-binding …: ANPGLVARITDKGLQYAAQEGLLALQSELLRITLPDFTGDLRIPHVGRGRYEFHSLNIHSCELLHSALRPVPGQGLSLSISDSSIRVQGRWKVRKSFFKLQGSFDVSVKGISISVNLLLGSESSGRPTVTASSCSSDIADVEVDMSGDLGWLLNLFHNQIESKFQKVLESRICEMIQKSVSSDLQPYLQTLPVTTEIDSFADIDYSLVEAPRATAQMLEVMFKGEIFHRNHRSPVTLLAAVMSLPEEHNKMVYFAISDYVFNTASLVYHEEGYLNFSITDDMIPPDSNIRLTTKSFRPFVPRLARLYPNMNLELQGSVPSAPLLNFSPGNLSVDPYMEIDAFVLLPSSSKEPVFRLSVATNVSATLTFNTSKITGFLKPGKVKVELKESKVGLFNAELLEALLNYYILNTFYPKFNDKLAEGFPLPLLKRVQLYDLGLQIHKDFLFLGANVQYMRV

Columns and labels:
C. albicans = assay: Radial diffusion fungicidal assay, Candida albicans; format: cell-based; details: radial diffusion
[1] = test system: E. coli 0111:B4 (smooth) bacteria; assay: Radial diffusion bactericidal assay, E. coli 0111:B4; format: cell-based; details: radial diffusion; PROBIT analysis; E. coli O111:B4 (smooth)
[2] = 3H-heparin binding assay (affinity and capacity); details: for Heparin Capacity: heparin bound at saturation; for Kd: read-out: Heparin Affinity
In short: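 Bound 3H-heparin was counted by liquid scintillation after 1 h incubation at 4 °C with fragments immobilised on PVDF-bottomed wells, then washing in blocking buffer. Signal was corrected for BSA-related background, and varying amounts of rBPI23 were used as positive control.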

Candida albicans = format: cell-based; details: for MIC (x Fold change in fungicidal activity): alanine variant relative to BPI.13
[3] = test system: rough mutant E. coli J5 bacteria; assay: Radial diffusion bactericidal assay, E. coli J5; format: cell-based; details: for pmol added to well to achieve a 30 mm^2 bactericidal zone, E. coli J5: radial diffusion, PROBIT analysis, E. coli J5 (rough); for fold reduction in bactericidal activity in the radial diffusion assay: alanine variant vs unsubstituted peptide
In short: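 Log-phase bacteria, washed in 10 mM sodium phosphate pH 7.4, were seeded at 4×10^6 CFU/mL in underlayer agarose. BPI fragments (5 or 10 μL) went into 3 mm wells for 3 h at 37° C., then overlayer agarose was added. After overnight 37° C. incubation, clearing zones were measured by micrometer.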

E. coli 0113 LPS = assay: Limulus Amoebocyte Lysate (LAL) inhibition assay; format: biochemical; details: for LAL (relative difference): alanine variant relative to BPI.13
Protocol: BPI proteolytic fragments produced according to Example 1 were subjected to a Limulus Amoebocyte Lysate (LAL) inhibition assay to determine LPS binding properties of these fragments. Specifically, each of the fragments were mixed in Eppendorf tubes with a fixed concentration of E. coli 0113 LPS (4 ng/mL final concentration) and incubated at 37° C. for 3 hours with occasional shaking. Addition controls comprising rBPI23 at 0.05 μg/mL were also tested. Following incubation, 360 μL of Dulbecco's phosphate buffered saline (D-PBS; Grand Island Biological Co. (GIBCO), Long Island, N.Y.) were added per tube to obtain an LPS concentration of 200 pg/mL for the LAL assay. Each sample was then transferred into Immulon II strips (Dynatech, Chantilly, Va.) in volumes of 50 μl per well.
Limulus amoebocyte Lysate (Quantitative Chromogenic LAL kit, Whitaker Bioproducts, Inc., Walkersville, Md.) was added at 50 μL per well and the wells were incubated at room temperature for 25 minutes. Chromogenic substrate was then added at a volume of 100 μL per well and was well mixed. After incubation for 20 to 30 minutes at room temperature, the reaction was stopped with addition of 100 μL of 25% (v/v) acetic acid. Optical density at 405 nm was then measured in a multiplate reader (Model Vmax, […], Menlo Park, Calif.) with the results shown in FIG. 2 in terms of percent inhibition of LPS. In this Figure, the filled circle represents rBPI23; the open circle represents Asp-N fragment A3; the x represents Asp-N fragment A2, the filled square represents Asp-N fragment A4; the filled triangle represents Asp-N fragment A1A2; the open square represents Asp-N fragment A6a; the small open triangle represents CNBr fragment C3; and the small filled square represents CNBr fragment C1/C5.

[4] = test system: zymosan-stimulated NO production by RAW 264.7 cells; assay: Zymosan-stimulated NO production by RAW 264.7 cells; format: cell-based, mouse
Protocol: An additional LPS neutralization screening assay for BPI functional domain peptides was developed using an assay for NO production in mouse cells treated with LPS (see Lorsbach et al., 1993, J. Biol. Chem. 268: 1908-1913). In this assay, mouse RAW 264.7 cells (ATCC Accession No. TIB71) were treated with bacterial LPS. The cells were incubated in 96-well plates and stimulated for 2 hours with E. coli 0113 LPS or zymosan, in the presence or absence of _-interferon, rLBP, fetal bovine serum (FBS) or normal human serum (NHS), or rBPI21Δcys. After this incubation, the cells were washed with fresh media and incubated overnight in media containing 10% FCS. The NO released from the cells accumulated in the media and spontaneously converted to nitrite. This nitrite was assayed in situ by the Griess reaction, as follows. The nitrite was reacted with the primary amine of an added sulfanilamide and formed a diazonium salt. This salt was then reacted with added naphthylethylenediamine to form a red azo-dyc. The Griess reaction was performed at room temperature in about 10 minutes. The amount of produced NO was estimated from a standard curve of Griess reaction products determined spectrophotometrically as Absorbance at a wavelength of 550 nm.

| Molecule | C. albicans: pmol required for 30 mm^2 zone (C. albicans) | pmol added to well to achieve a 30 mm^2 bactericidal zone, E. coli O111:B4 [1] | Heparin Capacity [2] | Kd [2] | MIC C. alb (Candida albicans) | MIC (x Fold change in fungicidal activity) (Candida albicans) | pmol added to well to achieve a 30 mm^2 bactericidal zone, E. coli J5 [3] | LAL / LPS inhibition activity (in words) (E. coli 0113 LPS) | HEPCAP (x Fold change in activity) ([2]; heparin binding capacity, relative to BPI.13) | decline of Kd of heparin binding ([2]; vs unsubstituted peptide) | LAL (relative difference) (E. coli 0113 LPS) | fold reduction in bactericidal activity in the radial diffusion assay [3] | increase of Kd of heparin binding and heparin capacity ([2]; vs unsubstituted peptide) | inhibition of zymosan-stimulated NO production (in words) [4] |
| --- | --- | --- | --- | --- | --- | --- | --- | --- | --- | --- | --- | --- | --- | --- |
| ASKVGWLIQLFHKK [BPI.31] | 426.21 pmol | b (no detectable activity up to 5 μg/well) | 205.1 ng | 252 nM | 6.25 µg/mL | = | 937.60 pmol | moderate decrease in LPS-binding activity |  |  |  |  |  |  |
| KSKVGWLIQLFAKK [BPI.42] | 548.49 pmol | 3,731.70 pmol | 369.1 ng | 820 nM | 6.25 µg/mL | = | 264.80 pmol |  | =1.0 x Fold | 1.2 fold | = (no difference in the LAL assay) |  |  |  |
| KSKVGWLIQLFHAK [BPI.43] | 784.78 pmol | 4,872.30 pmol | 283.9 ng | 492 nM | 12.50 µg/mL |  | 729.40 pmol |  |  |  | = (no difference in the LAL assay) |  |  |  |
| KSKVGWLAQLFHKK [BPI.38] | 390.65 pmol | b (no detectable activity up to 5 μg/well) | 194.3 ng | 579 nM | 6.25 µg/mL | = | 1,698.20 pmol |  |  |  | = (no difference in the LAL assay) |  |  |  |
| KSAVGWLIQLFHKK [BPI.33] | 603.44 pmol | b (no detectable activity up to 5 μg/well) | 230.7 ng | 492 nM | 6.25 µg/mL | = | 575.40 pmol | moderate decrease in LPS-binding activity |  |  |  |  |  |  |
| KSKVGWLIQLAHKK [BPI.41] | 733.70 pmol | b (no detectable activity up to 5 μg/well) | 119.1 ng | 469 nM | 3.13 µg/mL |  | 2,465.40 pmol |  |  |  | = (no difference in the LAL assay) |  |  |  |
| KSKVGALIQLFHKK [BPI.36] | 196.96 pmol | b (no detectable activity up to 5 μg/well) | 80.2 ng | 379 nM | 6.25 µg/mL | = | 1,652.00 pmol | large decrease in LPS-binding activity |  |  |  | approximately 5 fold |  |  |
| KSKVAWLIQLFHKK [BPI.35] | 441.79 pmol | b (no detectable activity up to 5 μg/well) | 406.0 ng | 1080 nM | 3.13 µg/mL |  | 263.00 pmol |  |  |  | = (no difference in the LAL assay) |  | 10% |  |
| KSKAGWLIQLFHKK [BPI.34] | 319.13 pmol | b (no detectable activity up to 5 μg/well) | 205.1 ng | 518 nM | 6.25 µg/mL | = | 916.20 pmol | moderate decrease in LPS-binding activity |  |  |  |  |  |  |
| KSKVGWLIQAFHKK [BPI.40] | 253.17 pmol | b (no detectable activity up to 5 μg/well) | 160.5 ng | 547 nM | 3.13 µg/mL |  | 1,760.10 pmol | large decrease in LPS-binding activity |  |  | = (no difference in the LAL assay) | approximately 5 fold |  |  |
| KAKVGWLIQLFHKK [BPI.32] | 293.62 pmol | b (no detectable activity up to 5 μg/well) | 217.1 ng | 340 nM | 3.13 µg/mL |  | 613.80 pmol | moderate decrease in LPS-binding activity |  |  |  |  |  |  |
| KSKVGWAIQLFHKK [BPI.37] | 252.71 pmol | b (no detectable activity up to 5 μg/well) | 136.7 ng | 189 nM | 6.25 µg/mL | = | 1,284.00 pmol |  |  |  | = (no difference in the LAL assay) |  |  |  |
| B1 |  |  |  |  |  |  |  |  |  |  |  |  |  | no significant inhibition |
